From patent US12370214B2, “Combined pharmaceutical formulation comprising drug-containing liposome composition and platinum preparation” (FUJIFILM Corporation, priority 2018, dated 2025)

Key:
[1] = system: A2780 cells; assay: Drug efficacy test with combined use of platinum preparation in tumor-bearing mouse model with subcutaneous transplantation of A2780 (carboplatin, Lipo, paclitaxel); assay type: in vivo, mice
Experimental: A platinum preparation (hereinafter, also referred to as carboplatin), the topotecan-containing liposome composition according to the embodiment of the present invention, and paclitaxel were used as test substances. Physiological saline (available from Otsuka Pharmaceutical Factory, Inc., hereinafter, also referred to as carboplatin solvent) was used for the dilution of carboplatin. A 10 mM histidine/9.4% sucrose solution (hereinafter, also referred to as Lipo solvent) was used for the dilution of Lipo. 12.5% CREMOPHOR (available from Sigma-Aldrich, LLC)/12.5% ethanol (available from Shonan Wako Junyaku K.K.)/75% physiological saline (available from Otsuka Pharmaceutical Factory, Inc.) was used for the dilution of paclitaxel.
5×10^6 A2780 cells, which is a human ovarian cancer cell line, were subcutaneously transplanted into the flank of female BALB/cAJcl-nu/nu mice to form subcutaneous tumors. From 7 days after transplantation, mice were drug treated with carboplatin alone, Lipo of the present invention alone, a combination of carboplatin and Lipo, and a combination of carboplatin and paclitaxel, and the effect of the drug treatment on the survival time of the mice was evaluated. In a case where a volume of tumor reached 2,000 mm^3 or in a case where significant deterioration of the condition was observed, the animals were euthanized and considered dead. […]

[2] = system: A2780 cells; assay: Drug efficacy test with combined use of platinum preparation in tumor-bearing mouse model with subcutaneous transplantation of A2780 (carboplatin, Lipo, topotecan); assay type: in vivo, mice; conditions: for Median survival time: from start of drug administration, carboplatin 80 mg/kg ip, Lipo 0.5 mg/kg tail vein once a week x 2, topotecan 0.5 mg/kg tail vein once a day x 5, carboplatin once in the topotecan combination; for Number of animal deaths or euthanasias due to deterioration of condition: of 8 animals in group, same doses and schedules as median survival
Source text: A platinum preparation (hereinafter, also referred to as carboplatin), the topotecan-containing liposome composition according to the embodiment of the present invention, and topotecan were used as test substances. Physiological saline (available from Otsuka Pharmaceutical Factory, Inc., hereinafter, also referred to as carboplatin solvent) was used for the dilution of carboplatin and topotecan. A 5% Otsuka glucose solution (available from Otsuka Pharmaceutical Factory, Inc., hereinafter, also referred to as Lipo solvent) was used for the dilution of Lipo.
5×10^6 A2780 cells, which is a human ovarian cancer cell line, were subcutaneously transplanted into the flank of female BALB/cAJcl-nu/nu mice to form subcutaneous tumors. From 7 days after transplantation, mice were drug treated with carboplatin alone, Lipo of the present invention alone, topotecan alone, a combination of carboplatin and Lipo, and a combination of carboplatin and topotecan, and the effect of the drug treatment on the survival time of the mice was evaluated. In a case where a volume of tumor reached 2,000 mm^3 or in a case where significant deterioration of the condition was observed, the animals were euthanized and considered dead.
In the combination group of a carboplatin solvent and a Lipo solvent, the carboplatin solvent was administered by intraperitoneal administration, and the Lipo solvent was administered by tail vein administration once a week for 2 weeks. The carboplatin alone group was administered by intraperitoneal administration once a week for 2 weeks. The Lipo alone group was administered by tail vein administration once a week for 2 weeks. In the combination group of carboplatin and Lipo, carboplatin was administered by intraperitoneal administration once a week for 2 weeks, and Lipo was administered by tail vein administration once a week for 2 weeks. In the combination group of carboplatin and topotecan, carboplatin was administered as a single dose by intraperitoneal administration, and topotecan was administered by tail vein administration once a day for 5 days.
Groups 1 to 4 and 6 correspond to Comparative Examples, and Group 5 corresponds to Example. In Table 5, “Lipo” represents the topotecan-containing liposome composition according to the embodiment of the present invention, “Abdomen” represents intraperitoneal administration, “Tail” represents tail vein administration, “Once a week×2” represents once a week for 2 weeks, “Once a day×5” represents administration once a day for 5 days, and “Once” represents administration once during the test period.

Row | SMILES | Median survival time ([1]; from start of drug administration, carboplatin 80 mg/kg ip, Lipo 0.5 mg/kg tail vein, paclitaxel 20 mg/kg tail vein, single agents once a week x 2, combinations once) | Number of animal deaths or euthanasias due to deterioration of condition ([1]; of 8 animals in group, same doses and schedules as median survival) | Median survival time [2] | Number of animal deaths or euthanasias due to deterioration of condition [2]
1 | N.N.O=C([O-])C1(C(=O)[O-])CCC1.[Pt+2] [Carboplatin, carboplatin] | 10 days | 1 | 9.1 days | 0
2 | CC[C@@]1(O)C(=O)OCc2c1cc1n(c2=O)Cc2cc3c(CN(C)C)c(O)ccc3nc2-1 [Topotecan, topotecan] | – | – | 12.9 days | 0
